From patent US20140178305A1, “IDENTIFICATION AND USE OF ANXIOLYTIC COMPOUNDS” (CALIFORNIA INSTITUTE OF TECHNOLOGY, priority 2012, published 2014)

Experiments:
[1] = system: MRGPRB4+ fibres; assay: Two-photon in vivo calcium imaging (GCaMP3.0) of central afferent fibres through a spinal cord laminectomy, chemical stimuli; set-up: species or system mouse
Experimental: (§1) Mice expressing reporters and/or Cre recombinase targeted to the MrgprB4 locus were generated by homologous recombination in embryonic stem cells, according to standard procedures. Heterozygous neonates from MrgprD-Cre and MrgprB4-Cre mice were injected intraperitoneally with Cre-dependent AAV8 viruses expressing GCaMP3.0 or mGCaMP3.0 or hM3(Gq-coupled) DREADD, and imaged as adults (≧8 weeks old).
(§2) Electrophysiology experiments on ex vivo skin-nerve preparations from adult heterozygous Mrgprb4-EGFPf reporter mice were performed as described in Woodbury, et al. J. Comp. Neurol. 436, 304-323 (2001). For calcium imaging, after a dorsal laminectomy the spinal column was stabilized and filled with imaging solution (see below for details). Imaging was performed using a two-photon laser-scanning microscope (Ultima, Prairie Inc.) using an Olympus 40×0.8 N.A. water immersion objective, at 128×128 pixel resolution with an acquisition rate of 8-12 frames per second. Mechanical stimuli were delivered using a custom-modified No. 5 sable paint brush or serrated forceps, in a manner electronically time-stamped to image acquisition, as may be seen in FIGS. 18A-18C and further discussed below. Stimuli were delivered to each mouse in a series of trials, separated by a few minutes; each trial consisted of one or more stimuli delivered typically at intervals of several seconds. Chemical stimuli were delivered to the spinal cord using a Pipetman pipette and to the periphery using a syringe pump. Calcium responses were analysed using custom software written in Matlab (see below for more details). For calculating ΔF/F [(Fav−F0)/F0], F0 is the average of the first ten frames of the recording period.
(§3) Mice 2 months or older were sedated by i.p. injection of a mix of ketamine (100 mg/kg), xylazine (15 mg/kg), acepromazine (2.5 mg/kg in 0.9% NaCl). During surgery, body temperature was maintained at 37° C. with a heating blanket.
(§4) A dorsal laminectomy was performed mostly at spinal level L2-L4 (but occasionally at L1-L3) as described in Johannssen, et al. J. Physiol. (Lond.) 588:3397-3402 (2010), but without removing the dura. The spinal column was stabilized using Narishige STS-A spinal clamps. In addition a head-holding adaptor from Kopf (923-B Mouse Gas Anaesthesia Head Holder) was used that has installed an anaesthesia/gas mask for positioning the mouse head. In this apparatus the gas is applied through a standard hose barb positioned above the nose on the mask. The inlet fills a large gas chamber around the snout, a second hose barb below the mask is provided for vacuuming off excess, expelled gasses. The animals were maintained under continuous anaesthesia for the duration of the imaging experiments with 1-2% isofluorane or with hourly injections of the above ketamine mix. A well was built around the exposed spinal cord using Gelseal (Amersham Biosciences Corp) and Kwik Sil Adhesive (WPI). Warm imaging solution (in mM: 130 NaCl, 3 KCl, 2.5 CaCl2, 0.6 6H2O.MgCl2, 10 HEPES without Na, 1.2 NaHCO3, 10 glucose, pH7.45 with NaOH) (37° C.) was repeatedly applied to prevent drying and maintain tissue integrity, and to allow the use of immersion objectives. During imaging the body temperature of the animals was maintained at 37° C. with a heating blanket and an air-therm heater (WPI) placed inside the microscope area.
(§5) Imaging experiments were performed under a two-photon laser-scanning microscope (Ultima, Prairie Instruments Inc.). Live images were acquired at 8-12 frames per second, at depths below the pia ranging from 100 to 250 μm, using an Olympus 40×0.8 N.A. water immersion objective, at 128×128 pixel resolution with a laser tuned to 940 nm wavelength, and emission filters 525/50 nm and 595/50 nm for green and red fluorescence, respectively. Laser power was adjusted to be 20-25 mW at the focal plane (maximally 35 mW), depending on the imaging depth and level of expression of GCaMP3.0. […]

[2] = system: MRGPRD+ fibres; assay: as above; set-up: species or system mouse
Experimental: as §1, §2, §3, §4, §5

[3] = system: MRGPRB4+ neurons engineered to express TRPV1; assay: Calcium imaging after peripheral injection of capsaicin in MrgprB4-Cre; Rosa26-loxP-STOP-loxP-TrpV1 mice; type: in vivo, mouse; conditions: adult MrgprB4-Cre, peripheral injection (10 μl of 1 mM)
Experimental: α,β-methyl ATP (10 μl from 1 mM solution) and capsaicin (10 μl from 1 mM solution (10% DMSO in saline)) was injected in the ventral and dorsal hindpaw of MrgprD and MrgprB4 mice, respectively, using a syringe pump (WPI, Inc., sp200i syringe pump). The timing of the injection was controlled by the two-photon image acquisition system and associated software (Prairie View and Trigger Sync, Prairie Technologies) to link it with image acquisition.
In the case of chemical stimulation (delivered either to the spinal cord or to the periphery), typically a single trial was performed for a given mouse, due to the difficulty of maintaining the same focal plane during the period of application of the chemical to the spinal cord or the period required for diffusion of the liquid bolus delivered for peripheral injection, respectively. In these cases, therefore, the MPI ΔF/Fpeak before and during the stimulation period were calculated for multiple mice imaged using ROIs of similar size, and were compared for statistical significance (relative to pre-stimulus baseline) by repeated measures ANOVA, followed by Bonferroni-corrected post-hoc comparison of means (unless stated otherwise). The ΔF/F values in FIGS. 11B and 11E were corrected for photobleaching as described in Berry, et al. Neuron 74:530-542 (2012). […]

[4] = direct application to the spinal cord, KCl 60 mM, n=3
[5] = injection into the dorsal (hairy) skin of the hindpaw (10 μl of 1 mM), n=3
[6] = injection into the glabrous skin of the hind paw (10 μl of 1 mM), n=3
[7] = spinal application, 5 mM, mean ± range, n=2

[Cl-].[K+] [KCl]
activation of fibres after application to the spinal cord (positive control) ([1]; KCl, same field of view as the CNO test in GCaMP3.0-only mice): robust activation | mean latency to peak (MLP) [1, 4]: 9.3 ± 4.15 s | mean percent increase in peak ΔF/F (MPI ΔF/Fpeak) [1, 4]: 201.6±33.2% | mean percent increase in peak ΔF/F (MPI ΔF/Fpeak) ([2]; direct application to the spinal cord, KCl 60 mM, mean ± s.e.m., n=3): 222±19% | mean latency to peak (MLP) [2, 4]: 8.6 ± 3.6 s

Nc1ncnc2c1ncn2[C@@H]1O[C@H](COP(=O)(O)CP(=O)(O)OP(=O)(O)O)[C@@H](O)[C@H]1O [α,β Me-ATP, α,β-methylene (Me) ATP]
MLP [1, 5]: 21.9 ± 12.6 s | MPI [ΔF/F]peak [1, 5]: 142±0.6% | calcium transients evoked by peripheral injection ([1]; mice expressing GCaMP3.0 but not TRPV1 in MrgprB4+ neurons, FIG. 8F): exhibit calcium transients | calcium response after application to the spinal cord ([2]; MrgD mice, FIG. 7E): induced a strong calcium response | MLP [2, 6]: 25.7 ± 10.5 s | MPI [ΔF/F]peak [2, 6]: 137±51% | MLP [2, 7]: 16.3±1.3 | MPI [ΔF/F]peak [2, 7]: 249±54%

COc1cc(CNC(=O)CCCC/C=C/C(C)C)ccc1O [capsaicin]
calcium transients evoked by peripheral injection ([1]; control MrgprB4-Cre mice without TRPV1, peripheral injection): no such signals were observed | calcium transients evoked by peripheral injection [3]: induced robust calcium transients
